Data as given in PMC11233931, “Remodeling tumor‐associated macrophage for anti‐cancer effects by rational design of irreversible inhibition of mitogen‐activated protein kinase‐activated protein kinase 2” (MedComm, 2024).

Legend:
Experiment in all cases: Eurofins kinase selectivity profile against 380 other human recombinant kinases (Table S2)
Assay type in all cases: biochemical
[1] = biological target: T1, 380 human recombinant protein kinases (Homo sapiens, UniProt P06493); settings: CDK1/cyclinB(h), read-out: Inhibition rate
T1 construct: purchased Eurofins (Celle Lévescault)
T1 sequence (P06493 whole entry): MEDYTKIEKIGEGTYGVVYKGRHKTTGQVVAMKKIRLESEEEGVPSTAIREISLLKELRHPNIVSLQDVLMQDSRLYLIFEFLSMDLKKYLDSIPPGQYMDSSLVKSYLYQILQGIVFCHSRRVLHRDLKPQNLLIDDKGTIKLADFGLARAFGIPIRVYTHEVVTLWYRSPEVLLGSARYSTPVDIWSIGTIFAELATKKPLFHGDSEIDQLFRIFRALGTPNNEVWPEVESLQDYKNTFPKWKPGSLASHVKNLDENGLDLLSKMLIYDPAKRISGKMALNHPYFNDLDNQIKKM
Summary of the method: (§1)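 Selectivity panel of 380 human recombinant protein kinases, screened by Eurofins at a range of concentrations.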

[2] = biological target: T2, 380 human recombinant protein kinases (Homo sapiens, UniProt O14965); settings: Aurora-A(h), read-out: Inhibition rate
T2 construct: purchased Eurofins (Celle Lévescault)
T2 sequence (O14965 1-403): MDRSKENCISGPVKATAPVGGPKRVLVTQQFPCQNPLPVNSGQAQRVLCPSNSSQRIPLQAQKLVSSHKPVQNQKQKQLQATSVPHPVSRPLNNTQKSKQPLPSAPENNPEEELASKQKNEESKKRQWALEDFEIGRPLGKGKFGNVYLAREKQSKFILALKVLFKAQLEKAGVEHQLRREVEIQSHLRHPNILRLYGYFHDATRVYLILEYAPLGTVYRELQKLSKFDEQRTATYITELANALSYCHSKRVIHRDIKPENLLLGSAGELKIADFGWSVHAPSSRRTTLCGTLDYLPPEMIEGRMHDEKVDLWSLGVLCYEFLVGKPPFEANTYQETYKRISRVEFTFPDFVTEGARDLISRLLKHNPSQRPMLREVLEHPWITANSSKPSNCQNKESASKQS
Summary of the method: as §1

[3] = biological target: T3, 380 human recombinant protein kinases (Homo sapiens, UniProt Q8IWQ3); settings: BrSK2(h), read-out: Inhibition rate
T3 construct: purchased Eurofins (Celle Lévescault)
T3 sequence (Q8IWQ3 1-736): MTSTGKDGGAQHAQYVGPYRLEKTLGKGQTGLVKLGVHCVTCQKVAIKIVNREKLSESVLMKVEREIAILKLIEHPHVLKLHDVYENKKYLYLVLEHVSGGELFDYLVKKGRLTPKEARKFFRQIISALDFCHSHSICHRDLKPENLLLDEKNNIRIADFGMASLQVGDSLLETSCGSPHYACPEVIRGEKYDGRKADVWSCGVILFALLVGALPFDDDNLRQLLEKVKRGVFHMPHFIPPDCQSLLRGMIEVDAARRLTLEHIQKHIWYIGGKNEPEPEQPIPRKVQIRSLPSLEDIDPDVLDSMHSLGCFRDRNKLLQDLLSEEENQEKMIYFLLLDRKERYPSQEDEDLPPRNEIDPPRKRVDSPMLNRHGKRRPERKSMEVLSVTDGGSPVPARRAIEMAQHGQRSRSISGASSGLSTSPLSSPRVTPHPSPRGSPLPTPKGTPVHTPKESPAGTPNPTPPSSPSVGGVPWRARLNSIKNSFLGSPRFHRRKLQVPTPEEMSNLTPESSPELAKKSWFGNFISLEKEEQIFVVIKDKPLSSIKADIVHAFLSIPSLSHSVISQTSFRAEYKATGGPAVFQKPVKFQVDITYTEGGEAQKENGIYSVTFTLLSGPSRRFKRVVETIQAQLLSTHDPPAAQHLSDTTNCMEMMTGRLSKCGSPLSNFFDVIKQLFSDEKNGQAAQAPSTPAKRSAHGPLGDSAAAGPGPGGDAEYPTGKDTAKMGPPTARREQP
Summary of the method: as §1

[4] = biological target: T4, 380 human recombinant protein kinases (Homo sapiens, UniProt P17252); settings: PKCα(h), read-out: Inhibition rate
T4 construct: purchased Eurofins (Celle Lévescault)
Summary of the method: as §1

[5] = biological target: T5, 380 human recombinant protein kinases (Homo sapiens, UniProt O15530); settings: PDK1(h), read-out: Inhibition rate
T5 construct: purchased Eurofins (Celle Lévescault)
T5 sequence (O15530 1-556): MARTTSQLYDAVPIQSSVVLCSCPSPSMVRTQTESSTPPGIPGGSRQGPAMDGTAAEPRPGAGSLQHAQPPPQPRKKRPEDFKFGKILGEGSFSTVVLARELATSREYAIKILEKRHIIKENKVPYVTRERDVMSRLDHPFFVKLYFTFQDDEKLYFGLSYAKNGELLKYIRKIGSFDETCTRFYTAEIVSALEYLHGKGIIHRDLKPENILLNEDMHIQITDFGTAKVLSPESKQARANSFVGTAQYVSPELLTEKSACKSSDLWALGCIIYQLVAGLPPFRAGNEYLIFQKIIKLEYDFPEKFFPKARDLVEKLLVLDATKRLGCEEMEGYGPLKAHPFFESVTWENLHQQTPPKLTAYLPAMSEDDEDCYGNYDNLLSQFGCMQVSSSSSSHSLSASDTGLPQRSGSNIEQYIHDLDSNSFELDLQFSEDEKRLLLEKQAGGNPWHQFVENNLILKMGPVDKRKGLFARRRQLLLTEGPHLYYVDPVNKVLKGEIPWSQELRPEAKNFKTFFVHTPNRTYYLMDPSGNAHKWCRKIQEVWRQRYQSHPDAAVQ
Summary of the method: as §1

[6] = biological target: T6, 380 human recombinant protein kinases (Homo sapiens, UniProt Q9P0L2); settings: MARK1(h), read-out: Inhibition rate
T6 construct: purchased Eurofins (Celle Lévescault)
T6 sequence (Q9P0L2 whole entry): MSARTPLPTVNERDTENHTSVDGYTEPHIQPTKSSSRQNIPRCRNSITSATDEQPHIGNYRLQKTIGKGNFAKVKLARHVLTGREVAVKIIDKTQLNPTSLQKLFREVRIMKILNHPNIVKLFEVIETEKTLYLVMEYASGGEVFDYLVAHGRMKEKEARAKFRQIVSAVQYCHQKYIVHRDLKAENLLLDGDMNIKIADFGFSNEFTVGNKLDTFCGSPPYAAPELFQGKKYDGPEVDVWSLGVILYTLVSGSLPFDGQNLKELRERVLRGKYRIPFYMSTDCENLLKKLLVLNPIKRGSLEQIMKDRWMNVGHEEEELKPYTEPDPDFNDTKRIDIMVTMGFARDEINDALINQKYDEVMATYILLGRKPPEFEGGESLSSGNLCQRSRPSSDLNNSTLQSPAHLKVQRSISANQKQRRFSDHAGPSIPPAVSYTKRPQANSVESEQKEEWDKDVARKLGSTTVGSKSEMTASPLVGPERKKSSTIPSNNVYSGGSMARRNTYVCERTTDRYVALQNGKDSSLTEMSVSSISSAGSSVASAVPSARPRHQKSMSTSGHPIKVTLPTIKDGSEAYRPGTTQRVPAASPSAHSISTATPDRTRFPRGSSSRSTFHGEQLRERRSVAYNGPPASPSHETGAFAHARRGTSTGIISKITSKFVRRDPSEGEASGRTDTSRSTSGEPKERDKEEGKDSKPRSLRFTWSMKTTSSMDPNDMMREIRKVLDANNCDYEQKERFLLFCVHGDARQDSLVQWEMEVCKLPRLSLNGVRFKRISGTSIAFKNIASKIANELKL
Summary of the method: as §1

[7] = biological target: T7, 380 human recombinant protein kinases (Homo sapiens, UniProt Q9H1R3); settings: MYLK2(h), read-out: Inhibition rate
T7 construct: purchased Eurofins (Celle Lévescault)
T7 sequence (Q9H1R3 whole entry): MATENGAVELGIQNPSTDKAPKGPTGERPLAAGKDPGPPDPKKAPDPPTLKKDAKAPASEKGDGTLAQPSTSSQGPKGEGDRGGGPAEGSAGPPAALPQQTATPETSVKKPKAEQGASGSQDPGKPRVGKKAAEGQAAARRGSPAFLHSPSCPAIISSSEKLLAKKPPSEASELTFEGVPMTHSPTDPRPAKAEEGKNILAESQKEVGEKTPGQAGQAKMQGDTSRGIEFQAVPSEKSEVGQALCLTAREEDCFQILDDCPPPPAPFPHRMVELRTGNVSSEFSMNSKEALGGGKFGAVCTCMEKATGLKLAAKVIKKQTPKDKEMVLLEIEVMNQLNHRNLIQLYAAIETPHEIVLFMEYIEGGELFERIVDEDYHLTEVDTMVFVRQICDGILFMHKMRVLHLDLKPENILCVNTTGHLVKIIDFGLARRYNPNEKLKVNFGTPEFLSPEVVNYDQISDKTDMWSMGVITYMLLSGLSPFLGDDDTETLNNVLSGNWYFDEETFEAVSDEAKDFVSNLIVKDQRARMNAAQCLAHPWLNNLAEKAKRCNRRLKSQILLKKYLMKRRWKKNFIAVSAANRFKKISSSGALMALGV
Summary of the method: as §1

SMILES: C=CC(=O)Nc1cc(-c2cc(-c3cc4c([nH]3)CCNC4=O)ccn2)ccc1OC(F)(F)F [compound 11]
- inhibition at 0.01 µM ([1]; 10 nM): 0%
- inhibition at 0.1 µM ([1]; 100 nM): 10%
- inhibition at 1 µM ([1]; 1000 nM): 43%
- inhibition at 0.01 µM ([2]; 10 nM): -1%
- inhibition at 0.1 µM ([2]; 100 nM): 1%
- inhibition at 1 µM ([2]; 1000 nM): 7%
- inhibition at 0.01 µM ([3]; 10 nM): -2%
- inhibition at 0.1 µM ([3]; 100 nM): 6%
- inhibition at 1 µM ([3]; 1000 nM): 26%
- inhibition at 0.01 µM ([4]; 10 nM): 5%
- inhibition at 0.1 µM ([4]; 100 nM): 14%
- inhibition at 1 µM ([4]; 1000 nM): 6%
- inhibition at 0.01 µM ([5]; 10 nM): -9%
- inhibition at 0.1 µM ([5]; 100 nM): -2%
- inhibition at 1 µM ([5]; 1000 nM): 3%
- inhibition at 0.01 µM ([6]; 10 nM): -1%
- inhibition at 0.1 µM ([6]; 100 nM): -12%
- inhibition at 1 µM ([6]; 1000 nM): -4%
- inhibition at 0.01 µM ([7]; 10 nM): -2%
- inhibition at 0.1 µM ([7]; 100 nM): 6%
- inhibition at 1 µM ([7]; 1000 nM): 29%
